Tests used:
Format in all cases: cell-based
p53^−/− HCT116 cells = test: Hypodiploid DNA content by propidium iodide staining and flow cytometry, p53-/- HCT116
Experimental: Cells were collected and centrifuged at 3,000 rpm for 5 minutes at 4° C., and washed in PBS (pH 7.2). The cell pellet was solubilized in lysis buffer (20 mM Tris, pH 7.2, 0.5% deoxycholate, 1% Triton X-100, 0.1% SDS, 150 mM NaCl, 1 mM EDTA) containing proteases inhibitors (Complete, Roche Applied Science) for 30 min at 4° C. The lysate was cleared by centrifugation for 15 minutes, and protein concentration was evaluated using a Bio-Rad protein assay system (Bio-Rad Laboratories, Hercules, Calif.). Samples (30 μg) were separated by SDS-polyacrylamide gel, transferred to nylon membranes (Millipore), and incubated with primary antibodies to p53 (Oncogene Research Products, FL-393, Santa Cruz Biotechnology, Inc., Santa Cruz, Calif.), p21^Waf1/Cip1 (Oncogene Research Products), XIAP (BD Transduction Laboratories), survivin (NOVUS Biologicals, Littleton, Colo.), MDM2 (Santa Cruz Biotechnology, Inc.), p14^ARF (NOVUS Biologicals), caspase-3 (Cell Signaling Technology), cleaved caspase-3 (Cell Signaling Technology), β-catenin (BD Transduction Laboratories), cyclin B1 (GNS1, Santa Cruz Biotechnology, Inc.), GSK3β (Santa Cruz Biotechnology, Inc.), or β-sactin (Sigma) with detection of reactive bands by chemiluminescence (Amersham). Cells were analyzed for hypodiploid DNA content by propidium iodide staining and flow cytometry as described in O'Connor et al., Cancer Cell, 2:43-54 (2002). Chemicals whose source is not explicitly listed were or can be obtained from Sigma.
The functional consequences of GSK3β inhibition were explored. Source and maintenance of p53^+/+ and p53^−/− HCT116 colorectal carcinoma cells were as described in Example 2. […] Alternatively, cells were incubated with GSK3β inhibitors LiCl (30 mM) or TDZD (20 μM), harvested after 48 hours and analyzed for cell viability (propidium iodide, red channel) and active caspase-3/7 activity (green channel, […]®, from Chemicon International Inc., Temecula, Calif.), by multiparametric flow cytometry as reported previously in Kim et al., Lancet, 362:205-209 (2003). […]

[1] = test system: wild-type (WT) or GSK3β^−/− primary murine embryonic fibroblasts (MEF) cells; test: Western blotting of p53 in wild-type or GSK3β-/- primary MEF cells; parameters: dose or concentration left out as unconfirmed; conditions: Purvalanol A, 6-24 hour
From the text: To confirm the link between GSK3β inhibition and p53 modulation in vivo, p53^+/+ HCT116 cells were transfected with wild-type GSK3β or a kinase-dead GSK3β dominant negative mutant (GSK3β DN mutant), previously described in Pap and Cooper, J. Biol. Chem., 273:19929-19932 (1998). Non-transformed wild-type (WT) or GSK3β^−/− primary murine embryonic fibroblasts (MEF) cells, described in Hoeflich et al., Nature, 406:86-90 (2000), were maintained in culture in DMEM supplemented with 10% FCS, 100 U/ml penicillin, and 100 μg/ml streptomycin (all from Invitrogen) in 5% CO2 at 37° C. […] Western blotting was performed as described in Example 2, to evaluate the expression of p53, p21^Waf1/Cip1 or β-actin at 6-24 hour intervals.

p34^cdc2 = target: T1, p34^cdc2 (Homo sapiens, UniProt P06493); test: H1 histone kinase assay of p34cdc2 immunoprecipitated from treated HCT116 cells
T1 construct: p34^cdc2 that was immunoprecipitated from HCT116 cells treated with vehicle for 6 to 48 hours consistently phosphorylated histone H1; endogenous in cells; host or cells: HCT116 colorectal carcinoma cells
Experimental: As shown in FIG. 2C (lanes labeled None), p34^cdc2 that was immunoprecipitated from HCT116 cells treated with vehicle for 6 to 48 hours consistently phosphorylated histone H1.

T1 sequence (P06493 whole entry): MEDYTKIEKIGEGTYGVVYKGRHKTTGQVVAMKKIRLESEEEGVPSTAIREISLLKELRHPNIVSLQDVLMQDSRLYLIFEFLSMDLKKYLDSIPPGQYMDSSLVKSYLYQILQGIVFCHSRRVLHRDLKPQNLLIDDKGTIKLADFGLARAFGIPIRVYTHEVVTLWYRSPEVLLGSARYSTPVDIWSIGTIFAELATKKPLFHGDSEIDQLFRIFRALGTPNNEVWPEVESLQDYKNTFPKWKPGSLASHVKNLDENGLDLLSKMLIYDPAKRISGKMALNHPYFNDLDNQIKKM
T1 sequence (P14635 whole entry partner): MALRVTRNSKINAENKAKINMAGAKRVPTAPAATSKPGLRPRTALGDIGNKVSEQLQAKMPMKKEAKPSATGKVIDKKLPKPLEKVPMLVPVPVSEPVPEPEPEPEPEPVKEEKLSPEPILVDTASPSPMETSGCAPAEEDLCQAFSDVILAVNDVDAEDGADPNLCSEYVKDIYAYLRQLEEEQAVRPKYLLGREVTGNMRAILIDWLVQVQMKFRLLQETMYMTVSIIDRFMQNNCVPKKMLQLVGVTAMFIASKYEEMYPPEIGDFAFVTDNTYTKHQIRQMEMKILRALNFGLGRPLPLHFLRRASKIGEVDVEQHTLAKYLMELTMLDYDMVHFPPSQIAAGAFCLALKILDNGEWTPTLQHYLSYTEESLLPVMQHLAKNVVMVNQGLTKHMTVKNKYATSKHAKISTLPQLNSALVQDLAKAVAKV

Structure (SMILES): CC(C)[C@H](CO)Nc1nc(Nc2cccc(Cl)c2)c2ncn(C(C)C)c2n1 [Purvalanol A]
- apoptosis / cell death (hypodiploid DNA content) (p53^−/− HCT116 cells; 0-20 μM, 48 hours): largely resistant to Purvalanol A-induced cell death
- cell cycle effect (DNA content) (p53^−/− HCT116 cells; 0-20 μM, 48 hours): sustained G2/M arrest
- enhancement of cell death in survivin-ablated (S4) vs VIII transfectants treated with Purvalanol A (p53^−/− HCT116 cells; survivin RNAi (S4), Purvalanol A 5 μM, 24 hour): 2.5 fold
- p53 expression (Western blot) [1]: did not further modulate p53 expression
- p34^cdc2 kinase activity (histone H1 phosphorylation) (p34^cdc2; 6 and 12 hours of treatment): no apparent inhibition of p34^cdc2 kinase activity
- p34^cdc2 kinase activity (histone H1 phosphorylation) (p34^cdc2; 24 and 48 hours of treatment): did appear to suppress histone H1 phosphorylation

Source: patent US20060204980A1, “Colorectal cancer therapies” (priority 2004, published 2006)
